According to patent US10669261B2, “Heteroarylhydroxypyrimidinones as agonists of the APJ receptor” (BRISTOL-MYERS SQUIBB COMPANY, priority 2015, dated 2020):

target: T1, human APJ receptor (Homo sapiens, UniProt P35414); assay: Intracellular cAMP accumulation assay (APJ hcAMP, HTRF); format: cell-based; details: HEK293 cells stably expressing human APJ receptor; inhibition of forskolin-mediated cAMP production; stated at end of example; read-out: Human APJ cAMP Potency Range
T1 construct: expressed in transfected cells
T1 sequence (P35414 1-380): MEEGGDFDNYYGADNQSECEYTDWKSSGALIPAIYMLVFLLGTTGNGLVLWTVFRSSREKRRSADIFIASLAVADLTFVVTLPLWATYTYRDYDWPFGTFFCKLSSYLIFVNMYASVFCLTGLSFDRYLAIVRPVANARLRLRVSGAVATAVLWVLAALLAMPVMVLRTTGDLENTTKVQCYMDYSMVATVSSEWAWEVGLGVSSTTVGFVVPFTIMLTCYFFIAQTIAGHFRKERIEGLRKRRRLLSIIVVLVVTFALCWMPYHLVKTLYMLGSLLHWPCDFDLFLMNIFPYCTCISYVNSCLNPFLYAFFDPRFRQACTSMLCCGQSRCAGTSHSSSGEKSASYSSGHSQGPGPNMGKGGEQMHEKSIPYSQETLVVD
Method: Intracellular cAMP Accumulation Assay
HEK293 cells stably expressing human APJ receptor were used to assess the activity of compounds. Cultured cells were detached and resuspended in the cAMP Homogeneous Time-Resolved Fluorescence (HTRF) assay buffer (Cisbio cat; #62AM4PEJ). The assay was performed in 384-well assay plates (Perkin-Elmer; cat #6008289) according to assay protocol provided by the manufacturer. Serial dilutions of a compound together with assay buffer containing […] IBMX and 2 μM forskolin were added to each well containing 5,000 cells and incubated for 30 minutes at room temperature. Subsequently, cAMP D2 reagent was added in the lysis buffer followed by the EuK antibody (Cisbio; cat #62AM4PEJ) and incubated for 60 min. The fluorescence emission ratio was measured using fluorometer. The intracellular cAMP concentrations (compound-stimulated inhibition of forskolin-mediated cAMP production) were calculated by extrapolation from a standard curve using known cAMP concentrations. The EC50 values were obtained by fitting the data to a sigmoidal concentration-response curve with variable slope. The maximal achievable inhibition of forskolin-induced cAMP levels (Ymax) for each compound was expressed as relative percentage of inhibition attained using pyroglutamated apelin-13 ((Pyr1)apelin-13) peptide, which was set to 100%.
The examples disclosed below were tested in the APJ in vitro assays described above and were found having human APJ cyclic AMP (hcAMP) activity. The EC50 value of each compound is presented at the end of the example description.
The biological activity of the exemplified compounds of this invention determined by the assay described above is shown at the end of each example.

EC50 | SMILES
10 to 100 nM | CCCCc1nc(=O)c(-c2nnc(Cc3noc4ccccc34)o2)c(O)n1-c1c(C#N)cccc1C#N [Example 28, 2-(5-(5-(Benzo[d]isoxazol-3-ylmethyl)-1,3,4-oxadiazol-2-yl)-2-butyl-6-hydroxy-4-oxopyrimidin-1 (4H)-yl)isophthalonitrile]

same assay, conditions: Table 1; HEK293 cells stably expressing human APJ receptor; read-out: hAPJ cAMP EC50 Potency range

SMILES | EC50
CCOCc1nc(=O)c(-c2nnc(Cc3csc(-c4ccccc4)n3)o2)c(O)n1-c1c(OC)cccc1OC [Example 39, 1-(2,6-dimethoxyphenyl)-2-(ethoxymethyl)-6-hydroxy-5-{5-[(2-phenyl-1,3-thiazol-4-yl)methyl]-1,3,4-oxadiazol-2-yl}-1,4-dihydropyrimidin-4-one] | 10 to 100 nM
C=CCCc1nc(=O)c(-c2nnc(Cc3noc4ccccc34)o2)c(O)n1-c1c(C)cccc1OC [Example 17, 5-[5-(1,2-benzoxazol-3-ylmethyl)-1,3,4-oxadiazol-2-yl]-2-(but-3-en-1-yl)-6-hydroxy-1-(2-methoxy-6-methylphenyl)-1,4-dihydropyrimidin-4-one] | 0.01 to 10 nM
COc1cccc(OC)c1-n1c(C2CCCC2)nc(=O)c(-c2nnc(Cc3ncc(Cl)cc3F)o2)c1O [Example 69, 5-{5-[(5-chloro-3-fluoropyridin-2-yl)methyl]-1,3,4-oxadiazol-2-yl}-2 cyclopentyl-1-(2,6-dimethoxyphenyl)-6-hydroxy-1,4-dihydropyrimidin-4-one] | 0.01 to 10 nM
COc1cccc(OC)c1-n1c(CCC(C)C)nc(=O)c(-c2nnc(CN3CCOCC3=O)o2)c1O [Example 16, 4-({5-[1-(2,6-dimethoxyphenyl)-6-hydroxy-2-(3-methylbutyl)-4-oxo-1,4-dihydropyrimidin-5-yl]-1,3,4-oxadiazol-2-yl}methyl)morpholin-3-one] | 0.01 to 10 nM
CC(C)OCc1nc(=O)c(-c2nnc(Cc3noc4ccccc34)o2)c(O)n1-c1c(C2CC2)cccc1C1CC1 [Example 41, 5-[5-(1,2-benzoxazol-3-ylmethyl)-1,3,4-oxadiazol-2-yl]-1-(2,6-dicyclopropylphenyl)-6-hydroxy-2-[(propan-2-yloxy)methyl]-1,4-dihydropyrimidin-4-one] | 0.01 to 10 nM
CCCCc1nc(=O)c(-c2nnc(Cc3noc4ccccc34)o2)c(O)n1-c1c(Cl)cccc1Cl [Example 19, 5-[5-(1,2-benzoxazol-3-ylmethyl)-1,3,4-oxadiazol-2-yl]-2-butyl-1-(2,6-dichlorophenyl)-6-hydroxy-1,4-dihydropyrimidin-4-one] | 0.01 to 10 nM
CCCCc1nc(=O)c(-c2nnc(Cc3nc(-c4ccccn4)no3)o2)c(O)n1-c1c(OC)cccc1OC [Example 9, 2-butyl-1-(2,6-dimethoxyphenyl)-6-hydroxy-5-(5-{[3-(pyridin-2-yl)-1,2,4-oxadiazol-5-yl]methyl}-1,3,4-oxadiazol-2-yl)-1,4-dihydropyrimidin-4-one] | 0.01 to 10 nM
COc1cccc(OC)c1-n1c(CC2CC2)nc(=O)c(-c2nnc(Cc3ccc(Cl)cc3)o2)c1O [Example 21, 5-{5-[(4-chlorophenyl)methyl]-1,3,4-oxadiazol-2-yl}-2-(cyclopropylmethyl)-1-(2,6-dimethoxyphenyl)-6-hydroxy-1,4-dihydropyrimidin-4-one] | 0.01 to 10 nM

Second part, the molecule after the results:

EC50 | SMILES
0.01 to 10 nM | COc1cccc(OC)c1-n1c(CCC(C)C)nc(=O)c(-c2nnc(Cn3ccccc3=O)o2)c1O [Example 10, 1-(2,6-dimethoxyphenyl)-6-hydroxy-2-(3-methylbutyl)-5-{5-[(2-oxo-1,2-dihydropyridin-1-yl)methyl]-1,3,4-oxadiazol-2-yl}-1,4-dihydropyrimidin-4-one]
0.01 to 10 nM | COc1cccc(OC)c1-n1c(CCC2CC2)nc(=O)c(-c2nnc(Cn3ccccc3=O)o2)c1O [Example 46, 2-(2-cyclopropylethyl)-1-(2,6-dimethoxyphenyl)-6-hydroxy-5-{5-[(2-oxo-1,2-dihydropyridin-1-yl)methyl]-1,3,4-oxadiazol-2-yl}-1,4-dihydropyrimidin-4-one]
0.01 to 10 nM | COc1cccc(OC)c1-n1c(C2CCCC2)nc(=O)c(-c2nnc(Cc3ccc(Cl)nc3)o2)c1O [Example 63, 5-{5-[(6-chloropyridin-3-yl)methyl]-1,3,4-oxadiazol-2-yl}-2-cyclopentyl-1-(2,6-dimethoxyphenyl)-6-hydroxy-1,4-dihydropyrimidin-4-one]
0.01 to 10 nM | COc1cccc(OC)c1-n1c(C2CCC2)nc(=O)c(-c2nnc(Cc3csc(C)n3)o2)c1O [Example 73, 2-cyclobutyl-1-(2,6-dimethoxyphenyl)-6-hydroxy-5-{5-[(2-methyl-1,3-thiazol-4-yl)methyl]-1,3,4-oxadiazol-2-yl}-1,4-dihydropyrimidin-4-one]
0.01 to 10 nM | COc1cccc(OC)c1-n1c(CCC2CC2)nc(=O)c(-c2nnc(Cc3ccc(Cl)cn3)o2)c1O [Example 59, 5-{5-[(5-chloropyridin-2-yl)methyl]-1,3,4-oxadiazol-2-yl}-2-(2-cyclopropylethyl)-1-(2,6-dimethoxyphenyl)-6-hydroxy-1,4-dihydropyrimidin-4-one]
0.01 to 10 nM | CCCCc1nc(=O)c(-c2nnc(Cc3noc4ccccc34)o2)c(O)n1-c1c(Br)cccc1Br [Example 15, 5-[5-(1,2-benzoxazol-3-ylmethyl)-1,3,4-oxadiazol-2-yl]-2-butyl-1-(2,6-dibromophenyl)-6-hydroxy-1,4-dihydropyrimidin-4-one]
0.01 to 10 nM | [2H]C([2H])([2H])Oc1cccc(OC([2H])([2H])[2H])c1-n1c(COCC)nc(=O)c(-c2nnc(Cc3ccc(Cl)cc3)o2)c1O [Example 51, 1-[2,6-bis(^2H3)methoxyphenyl]-5-{5-[(4-chlorophenyl)methyl]-1,3,4-oxadiazol-2-yl}-2-(ethoxymethyl)-6-hydroxy-1,4-dihydropyrimidin-4-one]
0.01 to 10 nM | COc1cccc(OC)c1-n1c(C2CCCC2)nc(=O)c(-c2nnc(Cc3ccc(F)cn3)o2)c1O [Example 67, 2-cyclopentyl-1-(2,6-dimethoxyphenyl)-5-{5-[(5-fluoropyridin-2-yl)methyl]-1,3,4-oxadiazol-2-yl}-6-hydroxy-1,4-dihydropyrimidin-4-one]
0.01 to 10 nM | COc1cccc(OC)c1-n1c(C2CCC2)nc(=O)c(-c2nnc(CN3CCCC3=O)o2)c1O [Example 72, 2-cyclobutyl-1-(2,6-dimethoxyphenyl)-6-hydroxy-5-{5-[(2-oxopyrrolidin-1-yl)methyl]-1,3,4-oxadiazol-2-yl}-1,4-dihydropyrimidin-4-one]
0.01 to 10 nM | C=CCCc1nc(=O)c(-c2nnc(Cc3noc4ccccc34)o2)c(O)n1-c1c(OC)cccc1OC [Example 3, 5-[5-(1,2-benzoxazol-3-ylmethyl)-1,3,4-oxadiazol-2-yl]-2-(but-3-en-1-yl)-1-(2,6-dimethoxyphenyl)-6-hydroxy-1,4-dihydropyrimidin-4-one]

same assay, conditions: Table 2; HEK293 cells stably expressing human APJ receptor; read-out: hAPJ cAMP EC50 Potency range

EC50 | SMILES
0.01 to 10 nM | CCCCc1nc(O)c(-c2nnc(Cc3ccc(Cl)cn3)o2)c(=O)n1[C@@H](CCC)c1ccccc1 [Example 105, 2-butyl-5-{5-[(5-chloropyridin-2-yl)methyl]-1,3,4-oxadiazol-2-yl}-6-hydroxy-3-[(1S)-1-phenylbutyl]-3,4-dihydropyrimidin-4-one]
10 to 100 nM | CCCCc1nc(O)c(-c2nnc(Cc3noc4ccccc34)o2)c(=O)n1[C@@H](COC)c1ccccc1 [Example 91, 5-{5-[(1,2-benzoxazol-3-yl)methyl]-1,3,4-oxadiazol-2-yl}-2-butyl-6-hydroxy-3-[(1R)-2-methoxy-1-phenylethyl]-3,4-dihydropyrimidin-4-one]
10 to 100 nM | CCCCc1nc(O)c(-c2nnc(Cc3noc4ccccc34)o2)c(=O)n1C(c1ccccc1)C(C)C (stereo not shown) [Example 115, 5-{5-[(1,2-benzoxazol-3-yl)methyl]-1,3,4-oxadiazol-2-yl}-2-butyl-6-hydroxy-3-(2-methyl-1-phenylpropyl)-3,4-dihydropyrimidin-4-one]
0.01 to 10 nM | CCCCc1nc(O)c(-c2nnc(Cc3csc(C)n3)o2)c(=O)n1[C@H](CC)c1ccccc1 [Example 88]
0.01 to 10 nM | CCCCc1nc(O)c(-c2nnc(Cc3ccc(Cl)cn3)o2)c(=O)n1[C@@H](COC)c1ccccc1 [Example 101, 2-butyl-5-{5-[(5-chloropyridin-2-yl)methyl]-1,3,4-oxadiazol-2-yl}-6-hydroxy-3-[(1R)-2-methoxy-1-phenylethyl]-3,4-dihydropyrimidin-4-one]
0.01 to 10 nM | CCCCc1nc(O)c(-c2nnc(Cc3csc(C)n3)o2)c(=O)n1[C@@H](COC)c1ccccc1 [Example 94, 2-butyl-6-hydroxy-3-[(1R)-2-methoxy-1-phenylethyl]-5-{5-[(2-methyl-1,3-thiazol-4-yl)methyl]-1,3,4-oxadiazol-2-yl}-3,4-dihydropyrimidin-4-one]
